Test results: PubChem BioAssay (NCI)
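Abbreviation: GI50, concentration required for 50% inhibition of growth. TGI: total growth inhibition.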

Tests used:
Experiment in all cases: DTP human tumour cell line panel, 384-well format
[1] = test system: RPMI-8226 leukemia
[2] = test system: MCF7 breast
[3] = test system: HCT-15 colon
[4] = test system: U251 glioblastoma
[5] = test system: RXF 393 renal
[6] = test system: MDA-MB-435 melanoma
[7] = test system: A498 renal
[8] = test system: MDA-MB-468 breast
[9] = test system: SNB-75 CNS
[10] = test system: SR leukemia
[11] = test system: HL-60(TB) leukemia
[12] = test system: SF-539 CNS
[13] = test system: SK-OV-3 ovarian
[14] = test system: HT29 colon
[15] = test system: EKVX NSCLC
[16] = test system: UACC-62 melanoma
[17] = test system: SN12C renal
[18] = test system: 786-0 renal
[19] = test system: NCI/ADR-RES ovarian
[20] = test system: K-562 leukemia
[21] = test system: HCC-2998 colon
[22] = test system: SK-MEL-5 melanoma
[23] = test system: OVCAR-3 ovarian
[24] = test system: A549 NSCLC
[25] = test system: LOX IMVI melanoma
[26] = test system: PC-3 prostate
[27] = test system: NCI-H23 lung
[28] = test system: KM12 colon
[29] = test system: SK-MEL-28 melanoma

Q: What does the source list for `COCCn1c2c([n+](Cc3cnccn3)c1C)C(=O)c1ccccc1C2=O`?
A: GI50 [1]: < 10 nM; TGI [1]: < 10 nM; GI50 [2]: < 10 nM; TGI [2]: < 10 nM; GI50 [3]: 40.3 nM; TGI [3]: 735 nM; GI50 [4]: < 10 nM; TGI [4]: < 10 nM; GI50 [5]: < 10 nM; TGI [5]: 12.1 nM; GI50 [6]: < 10 nM; TGI [6]: < 10 nM; GI50 [7]: 159 nM; TGI [7]: 1230 nM; GI50 [8]: < 10 nM; TGI [8]: < 10 nM; GI50 [9]: < 10 nM; TGI [9]: < 10 nM; GI50 [10]: < 10 nM; TGI [10]: < 10 nM; GI50 [11]: < 10 nM; TGI [11]: < 10 nM; GI50 [12]: < 10 nM; TGI [12]: < 10 nM; GI50 [13]: < 10 nM; TGI [13]: < 10 nM; GI50 [14]: 18 nM; TGI [14]: 55.4 nM; GI50 [15]: < 10 nM; TGI [15]: < 10 nM; GI50 [16]: < 10 nM; TGI [16]: < 10 nM; GI50 [17]: < 10 nM; TGI [17]: < 10 nM; GI50 [18]: < 10 nM; TGI [18]: 13 nM; GI50 [19]: 18800 nM; TGI [19]: > 100000 nM; GI50 [20]: < 10 nM; TGI [20]: < 10 nM; GI50 [21]: < 10 nM; TGI [21]: 14.3 nM; GI50 [22]: < 10 nM; TGI [22]: < 10 nM; GI50 [23]: < 10 nM; TGI [23]: < 10 nM; GI50 [24]: < 10 nM; TGI [24]: 12.9 nM; GI50 [25]: < 10 nM; TGI [25]: < 10 nM; GI50 [26]: < 10 nM; TGI [26]: < 10 nM; GI50 [27]: < 10 nM; TGI [27]: < 10 nM; GI50 [28]: 26 nM; TGI [28]: 114 nM; GI50 [29]: < 10 nM; TGI [29]: < 10 nM
